Laboratory results: US10947188B2, “Small molecule ferroptosis inducers” (THE TRUSTEES OF COLUMBIA UNIVERSITY IN THE CITY OF NEW YORK, priority 2016, dated 2021)

Experiments:
HT-1080 = test: Modulatory profiling: Alamar Blue viability, lethal compound cotreated with death modulator (EC50, AUC); assay type: cell-based; set-up: AUC, modulator HT.3MA / AUC, modulator HT.ALLN / AUC HT.ATA / AUC HT.ActD / AUC HT.BHA / AUC HT.BHT / AUC HT.BocD / AUC HT.CHX / AUC HT.Co2+ / AUC HT.DPQ / AUC HT.EGTA / AUC HT.Lmim / AUC HT.NAD+ / AUC HT.Nec-1 / AUC HT.SP600125 / AUC HT.TLCK / AUC HT.U0126: unit not given beside the values; settings: for AUC HT.ATA: HT-1080, modulator ATA; for AUC HT.ActD: HT-1080, modulator ActD; for AUC HT.BHA: HT-1080, modulator BHA; for AUC HT.BHT: HT-1080, modulator BHT; for AUC HT.BocD: HT-1080, modulator BocD; for AUC HT.CHX: HT-1080, modulator CHX; for AUC HT.Co2+: HT-1080, modulator Co2+; for AUC HT.CspA: HT-1080, modulator CspA; for AUC HT.DPQ: HT-1080, modulator DPQ; for AUC HT.EGTA: HT-1080, modulator EGTA; for AUC HT.Gd3+: HT-1080, modulator Gd3+; for AUC HT.LNAME: HT-1080, modulator LNAME; for AUC HT.Lmim: HT-1080, modulator Lmim; for AUC HT.NAD+: HT-1080, modulator NAD+; for AUC HT.NMMA: HT-1080, modulator NMMA; for HT.atoc (AUC) / HT.bCarotene (AUC) / HT.deferox (AUC) / HT.digoxin (AUC) / HT.trolox (AUC) / HT.zVAD (AUC): HT-1080; for HT.atoc (AUC): modulator atoc; for HT.bCarotene (AUC): modulator bCarotene; for HT.deferox (AUC): modulator deferox; for HT.digoxin (AUC): modulator digoxin; for HT.trolox (AUC): modulator trolox; for HT.zVAD (AUC): modulator zVAD; as to AUC HT.BHA: reference of the scale not given here; as to AUC HT.EGTA: reference of the scale not given here
BJeLR = test: as above; assay type: cell-based, human; set-up: AUC, modulator BJ.Gd3+ / AUC, modulator BJ.LNAME / AUC, modulator BJ.Lmin / AUC, modulator BJ.3MA / AUC, modulator BJ.ALLN / AUC, modulator BJ.Boc D / AUC, modulator BJ.CHX / AUC, modulator BJ.Co2+ / AUC, modulator BJ.Nec-1 / AUC, modulator BJ.Pepstatin / AUC, modulator BJ.TLCK / AUC, modulator BJ.atoc / AUC, modulator BJ.trolox / AUC, modulator BJ.zVAD: unit not given beside the values; settings: BJeLR cells, modulatory profile value (AUC); for AUC, modulator BJ.3MA: lethal compound cotreated with modulator 3MA; for AUC, modulator BJ.ALLN: lethal compound cotreated with modulator ALLN; for AUC, modulator BJ.Boc D: lethal compound cotreated with modulator Boc D; for AUC, modulator BJ.CHX: lethal compound cotreated with modulator CHX; for AUC, modulator BJ.Co2+: lethal compound cotreated with modulator Co2+; for AUC, modulator BJ.DPQ: lethal compound cotreated with modulator DPQ; for AUC, modulator BJ.Gd3+: lethal compound cotreated with modulator Gd3+; for AUC, modulator BJ.LNAME: lethal compound cotreated with modulator LNAME; for AUC, modulator BJ.Lmin/NAD+: lethal compound cotreated with modulator Lmin/NAD+; for AUC, modulator BJ.Lmin: lethal compound cotreated with modulator Lmin; for AUC, modulator BJ.NAD+: lethal compound cotreated with modulator NAD+; for AUC, modulator BJ.NMMA: lethal compound cotreated with modulator NMMA; for AUC, modulator BJ.Nec-1: lethal compound cotreated with modulator Nec-1; for AUC, modulator BJ.Pepstatin: lethal compound cotreated with modulator Pepstatin; for AUC, modulator BJ.TLCK: lethal compound cotreated with modulator TLCK; as to AUC, modulator BJ.3MA: reference of the scale not given here; as to AUC, modulator BJ.ALLN: reference of the scale not given here; as to AUC, modulator BJ.Boc D: reference of the scale not given here; as to AUC, modulator BJ.CHX: reference of the scale not given here; as to AUC, modulator BJ.Co2+: reference of the scale not given here; as to AUC, modulator BJ.DPQ: reference of the scale not given here; as to AUC, modulator BJ.Gd3+: reference of the scale not given here; as to AUC, modulator BJ.LNAME: reference of the scale not given here; as to AUC, modulator BJ.NAD+: reference of the scale not given here; as to AUC, modulator BJ.NMMA: reference of the scale not given here; as to AUC, modulator BJ.Nec-1: reference of the scale not given here; as to AUC, modulator BJ.Pepstatin: reference of the scale not given here; as to AUC, modulator BJ.TLCK: reference of the scale not given here

Row | SMILES | AUC HT.ATA (HT-1080) | AUC HT.ActD (HT-1080) | AUC HT.BHA (HT-1080) | AUC HT.BHT (HT-1080) | AUC HT.BocD (HT-1080) | AUC HT.CHX (HT-1080) | AUC, modulator BJ.3MA (BJeLR) | AUC, modulator BJ.ALLN (BJeLR) | AUC, modulator BJ.Boc D (BJeLR) | AUC, modulator BJ.CHX (BJeLR) | AUC, modulator BJ.Co2+ (BJeLR) | AUC, modulator BJ.DPQ (BJeLR) | AUC, modulator BJ.Gd3+ (BJeLR) | AUC, modulator BJ.LNAME (BJeLR) | AUC, modulator BJ.Lmin (BJeLR) | AUC, modulator BJ.NAD+ (BJeLR) | AUC, modulator BJ.NMMA (BJeLR) | AUC, modulator BJ.Nec-1 (BJeLR) | AUC, modulator BJ.Pepstatin (BJeLR) | AUC, modulator BJ.TLCK (BJeLR) | further results
1 | [O-][N+]1=c2ccc(Nc3ccccc3)cc2=NC12CCCCC2 [CIL66] | 0.02652 | −0.03277 | −0.02085 | −0.1542 | −0.05788 | 0.08144 | 0.04168 | 0.08747 | −0.03146 | 0.08369 | −0.03141 | −0.007284 | −0.003838 | 0.02705 | −0.05195 | −0.0264 | −0.02558 | 0.03694 | 0.04469 | −0.07935 | AUC HT.Co2+ (HT-1080): −0.06034; AUC HT.CspA (HT-1080): −0.05469; AUC HT.DPQ (HT-1080): −0.01105; AUC HT.EGTA (HT-1080): 0.03093; AUC HT.Gd3+ (HT-1080): −0.01757; AUC HT.LNAME (HT-1080): 0.004035; AUC HT.Lmim (HT-1080): 0.01652; AUC HT.NAD+ (HT-1080): −0.01106; AUC HT.NMMA (HT-1080): −0.01421; HT.atoc (AUC) (HT-1080): 0.05045; HT.bCarotene (AUC) (HT-1080): 0.03186; HT.deferox (AUC) (HT-1080): 0.1299; HT.digoxin (AUC) (HT-1080): −0.05456; HT.trolox (AUC) (HT-1080): −0.03334; HT.zVAD (AUC) (HT-1080): 0.01629; AUC, modulator BJ.Lmin/NAD+ (BJeLR): 0.06444
2 | O=[N+]([O-])c1ccc(O)c([N+](=O)[O-])c1 |  |  |  |  |  |  | −0.008182 | −0.03838 | −0.01714 | 0.189 | −0.008316 | −0.03251 | −0.01413 | −0.0202 | −0.0205 | 0.06986 | −0.02735 | −0.001955 | 0.05394 | −0.0426 | AUC, modulator HT.3MA (HT-1080; HT-1080 cells, lethal compound cotreated with modulator 3MA, modulatory profile value (AUC)): −0.1332; AUC, modulator BJ.atoc (BJeLR; lethal compound cotreated with modulator atoc): 0.02318; AUC, modulator BJ.trolox (BJeLR; lethal compound cotreated with modulator trolox): 0.009957; AUC, modulator BJ.zVAD (BJeLR; lethal compound cotreated with modulator zVAD): −0.0001198
3 | CC1(C)CC(=O)C2=C(C1)OC1=C(C(=O)CC(C)(C)C1)C2c1ccc(O)cc1O [CIL62] | 0.02941 | −0.01143 | −0.007393 | −0.1437 | 0.002455 | 0.08707 | 0.009762 | −0.06265 | −0.008658 | 0.5162 | 0.01574 | −0.005752 | 0.002946 | −0.02055 | 0.01862 | 0.04149 | −0.05556 | 0.1929 | 0.06831 | −0.03175 | effect of necrostatin-1 on lethality (HT-1080; 19 μM Nec-1): suppressed by necrostatin-1; AUC HT.Co2+ (HT-1080): 0.03422; AUC HT.CspA (HT-1080): −0.001347; AUC HT.DPQ (HT-1080): 0.01017; AUC HT.EGTA (HT-1080): 0.04611; AUC HT.Gd3+ (HT-1080): −0.02573; AUC HT.LNAME (HT-1080): −0.003569; AUC HT.Lmim (HT-1080): 0.008056; AUC HT.NAD+ (HT-1080): −0.01689; AUC HT.NMMA (HT-1080): −0.01754; HT.atoc (AUC) (HT-1080): 0.08235; HT.bCarotene (AUC) (HT-1080): 0.02726; HT.deferox (AUC) (HT-1080): 0.1061; HT.digoxin (AUC) (HT-1080): −0.02448; HT.trolox (AUC) (HT-1080): −0.03123; HT.zVAD (AUC) (HT-1080): −0.01794; AUC, modulator BJ.Lmin/NAD+ (BJeLR): 0.08736
